Columns and labels:
HDAC1 = HDAC1 (Homo sapiens (Human), UniProt Q13547); test: HDAC enzyme activity inhibition (in vitro), HDAC1 Fluorimetric Drug Discovery Assay Kit; format: biochemical; details: samples at 100, 1000 and 10000 nM; 37° C. 60 minutes; fluorescence Ex 390, Em 460
HDAC6 human recombinant = HDAC6 human recombinant (Homo sapiens (Human), UniProt Q9UBN7); test: HDAC enzyme activity inhibition (in vitro), HDAC6 assay; format: biochemical; details: samples at 0.1, 1, 10, 100 and 1000 nM; 37° C. 60 minutes; fluorescence Ex 390, Em 460
HDAC6 human recombinant, sequence (Q9UBN7 whole entry): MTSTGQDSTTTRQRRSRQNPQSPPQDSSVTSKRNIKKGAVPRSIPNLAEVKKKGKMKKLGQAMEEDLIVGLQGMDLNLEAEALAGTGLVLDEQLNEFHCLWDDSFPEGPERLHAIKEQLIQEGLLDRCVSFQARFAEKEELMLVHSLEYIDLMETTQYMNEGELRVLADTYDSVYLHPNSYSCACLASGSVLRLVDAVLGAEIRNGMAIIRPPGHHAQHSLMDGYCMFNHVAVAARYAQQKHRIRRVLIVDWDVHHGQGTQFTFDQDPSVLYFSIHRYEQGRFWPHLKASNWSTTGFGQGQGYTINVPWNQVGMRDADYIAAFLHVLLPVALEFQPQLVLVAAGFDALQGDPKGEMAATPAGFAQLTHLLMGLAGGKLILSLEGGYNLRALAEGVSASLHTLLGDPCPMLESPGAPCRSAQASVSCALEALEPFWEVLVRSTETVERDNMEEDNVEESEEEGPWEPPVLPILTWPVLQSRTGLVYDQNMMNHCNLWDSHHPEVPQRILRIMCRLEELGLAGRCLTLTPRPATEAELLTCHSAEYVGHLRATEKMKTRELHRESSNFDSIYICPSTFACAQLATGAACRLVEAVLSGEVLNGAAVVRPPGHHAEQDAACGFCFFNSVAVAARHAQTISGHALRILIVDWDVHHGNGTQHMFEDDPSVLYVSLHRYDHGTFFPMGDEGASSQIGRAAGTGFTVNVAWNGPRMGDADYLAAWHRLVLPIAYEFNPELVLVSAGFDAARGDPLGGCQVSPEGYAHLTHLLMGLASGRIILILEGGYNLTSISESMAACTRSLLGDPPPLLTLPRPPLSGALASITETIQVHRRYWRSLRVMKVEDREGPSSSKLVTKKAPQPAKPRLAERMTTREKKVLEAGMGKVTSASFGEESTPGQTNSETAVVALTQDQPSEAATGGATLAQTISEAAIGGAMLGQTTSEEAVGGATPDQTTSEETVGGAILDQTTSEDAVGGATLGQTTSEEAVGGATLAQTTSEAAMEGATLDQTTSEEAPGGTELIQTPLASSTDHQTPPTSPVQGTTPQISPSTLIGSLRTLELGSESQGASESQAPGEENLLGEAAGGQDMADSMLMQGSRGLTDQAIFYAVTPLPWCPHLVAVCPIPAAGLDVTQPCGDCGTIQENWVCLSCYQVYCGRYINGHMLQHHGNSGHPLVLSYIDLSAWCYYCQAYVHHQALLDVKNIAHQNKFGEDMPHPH

HDAC1, sequence (Q13547 whole entry): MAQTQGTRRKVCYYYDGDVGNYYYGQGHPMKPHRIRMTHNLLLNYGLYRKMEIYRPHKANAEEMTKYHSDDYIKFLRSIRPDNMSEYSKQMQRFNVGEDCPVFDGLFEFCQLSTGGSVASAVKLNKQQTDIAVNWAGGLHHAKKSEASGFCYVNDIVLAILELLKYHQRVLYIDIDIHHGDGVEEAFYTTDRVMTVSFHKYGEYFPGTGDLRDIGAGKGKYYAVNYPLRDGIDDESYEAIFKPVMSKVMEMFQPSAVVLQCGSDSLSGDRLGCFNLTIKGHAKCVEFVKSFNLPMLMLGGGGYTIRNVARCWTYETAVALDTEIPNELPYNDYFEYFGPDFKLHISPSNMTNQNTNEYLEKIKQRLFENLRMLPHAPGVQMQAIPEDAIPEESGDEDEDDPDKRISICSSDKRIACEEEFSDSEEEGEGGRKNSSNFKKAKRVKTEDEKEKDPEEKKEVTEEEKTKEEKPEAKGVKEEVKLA

Row | Compound | IC50 (HDAC1) [nM] | IC50 (HDAC6 human recombinant) [nM]
1 | CC1(C)C(=O)N(Cc2ccc(-c3nnc(C(F)F)o3)cn2)C(=O)c2c(-c3cccnc3)cccc21 [Compound 85, 2-((5-(5-(difluoromethyl)-1,3,4-oxadiazole-2-yl)pyridine-2-yl)methyl)-4,4-dimethyl-8-(pyridine-3-yl)isoquinoline-1,3(2H,4H)-dione] | > 10000 | 50
2 | O=C1c2ccc(Br)cc2C2(CCC2)C(=O)N1Cc1ccc(-c2nnc(C(F)F)o2)cn1 [Compound 106, 6′-bromo-2′-((5-(5-(difluoromethyl)-1,3,4-oxadiazole-2-yl)pyridine-2-yl)methyl)-1′H-spiro[cyclobutane-1,4′-isoquinoline]-1′,3′(2′H)-dione] | > 10000 | 48
3 | O=c1c2cc(F)ccc2n(CCN2CCCCC2)c(=O)n1Cc1ccc(-c2nnc(C(F)F)o2)cn1 [Compound 71, 3-((5-(5-(difluoromethyl)-1,3,4-oxadiazole-2-yl)pyridine-2-yl)methyl)-6-fluoro-1-(2-(piperidine-1-yl)ethyl)quinazoline-2,4(1H,3H)-dione] | > 10000 | 150
4 | CC1(C)C(=O)N(Cc2ccc(-c3nnc(C(F)F)o3)cn2)C(=O)c2ccc(C3=CCN(C4COC4)CC3)cc21 [Compound 43, 2-((5-(5-(difluoromethyl)-1,3,4-oxadiazole-2-yl)pyridine-2-yl)methyl)-4,4-dimethyl-6-(1-(oxetan-3-yl)-1,2,3,6-tetrahydropyridine-4-yl)isoquinoline-1,3(2H,4H)-dione] | > 10000 | 38
5 | O=C1c2ccc(Br)cc2C2(CCCCC2)C(=O)N1Cc1ccc(-c2nnc(C(F)F)o2)cn1 [Compound 107, 6′-bromo-2′-((5-(5-(difluoromethyl)-1,3,4-oxadiazole-2-yl)pyridine-2-yl)methyl)-1′H-spiro[cyclohexane-1,4′-isoquinoline]-1′,3′(2′H)-dione] | > 10000 | 148
6 | CC1(C)C(=O)N(Cc2ccc(-c3nnc(C(F)F)o3)cn2)C(=O)c2cc(C3=CC[S+]([O-])CC3)ccc21 (stereo not shown) [Compound 123, 2-((5-(5-(difluoromethyl)-1,3,4-oxadiazole-2-yl)pyridine-2-yl)methyl)-4,4-dimethyl-7-(1-oxydo-3,6-dihydro-2H-thiopyran-4-yl)isoquinoline-1,3(2H,4H)-dione] | > 10000 | 17
7 | CC1(C)C(=O)N(Cc2ccc(-c3nnc(C(F)F)o3)cc2F)C(=O)c2ccccc21 [Compound 7, 2-(4-(5-(difluoromethyl)-1,3,4-oxadiazole-2-yl)-2-fluorobenzyl)-4,4-dimethylisoquinoline-1,3(2H,4H)-dione] | > 10000 | 145
8 | CN1CCN(c2ccc3c(c2)C(C)(C)C(=O)N(Cc2ncc(-c4nnc(C(F)F)o4)cn2)C3=O)CC1 [Compound 153, 2-((5-(5-(difluoromethyl)-1,3,4-oxadiazole-2-yl)pyrimidine-2-yl)methyl)-4,4-dimethyl-6-(4-methylpiperazine-1-yl)isoquinoline-1,3(2H,4H)-dione] | > 10000 | 118
9 | O=c1c2ccccc2n(CC2CCN(C3COC3)CC2)c(=O)n1Cc1ccc(-c2nnc(C(F)F)o2)cn1 [Compound 16, 3-((5-(5-(difluoromethyl)-1,3,4-oxadiazole-2-yl)pyridine-2-yl)methyl)-1-((1-(oxetan-3-yl)piperidine-4-yl)methyl)quinazoline-2,4(1H,3H)-dione] | > 10000 | 257
10 | O=C1Cc2ccccc2C(=O)N1Cc1ccc(-c2nnc(C(F)F)o2)cn1 [Compound 65, 2-((5-(5-(difluoromethyl)-1,3,4-oxadiazole-2-yl)pyridine-2-yl)methyl)isoquinoline-1,3(2H,4H)-dione] | > 10000 | 133
11 | O=c1[nH]c2ccc(F)cc2c(=O)n1Cc1ccc(-c2nnc(C(F)F)o2)cn1 [Compound 67, 3-((5-(5-(difluoromethyl)-1,3,4-oxadiazole-2-yl)pyridine-2-yl)methyl)-6-fluoroquinazoline-2,4(1H,3H)-dione] | > 10000 | 62
12 | O=C1c2ccccc2C2(CCC2)C(=O)N1Cc1ccc(-c2nnc(C(F)F)o2)cc1F [Compound 3, 2′-(4-(5-(difluoromethyl)-1,3,4-oxadiazole-2-yl)-2-fluorobenzyl)-1′H-spiro[cyclobutane-1,4′-isoquinoline]-1′,3′(2′H)-dione] | > 10000 | 318
13 | CC(C)N1CCC(c2ccc3c(c2)C(=O)N(Cc2ccc(-c4nnc(C(F)F)o4)cn2)C(=O)C3(C)C)CC1 [Compound 69, 2-((5-(5-(difluoromethyl)-1,3,4-oxadiazole-2-yl)pyridine-2-yl)methyl)-7-(1-isopropylpiperidine-4-yl)-4,4-dimethylisoquinoline-1,3(2H,4H)-dione] | > 10000 | 19
14 | CC1(C)C(=O)N(Cc2ccc(-c3nnc(C(F)F)o3)cn2)C(=O)c2cc(N3CCN(CC(F)(F)F)CC3)ccc21 [Compound 133, 2-((5-(5-(difluoromethyl)-1,3,4-oxadiazole-2-yl)pyridine-2-yl)methyl)-4,4-dimethyl-7-(4-(2,2,2-trifluoroethyl)piperazine-1-yl)isoquinoline-1,3(2H,4H)-dione] | > 10000 | 76
15 | CC(C)N1CC=C(c2ccc3c(=O)n(Cc4ccc(-c5nnc(C(F)F)o5)cn4)c(=O)n(C)c3c2)CC1 [Compound 124, 3-((5-(5-(difluoromethyl)-1,3,4-oxadiazole-2-yl)pyridine-2-yl)methyl)-7-(1-isopropyl-1,2,3,6-tetrahydropyridine-4-yl)-1-methylquinazoline-2,4(1H,3H)-dione] | > 10000 | 38

Now from value to compound:

Row | IC50 (HDAC1) [nM] | IC50 (HDAC6 human recombinant) [nM] | Compound
16 | > 10000 | 70 | CC1(C)C(=O)N(Cc2ccc(-c3nnc(C(F)F)o3)cn2)C(=O)c2cc(C3CCN(S(C)(=O)=O)CC3)ccc21 [Compound 128, 2-((5-(5-(difluoromethyl)-1,3,4-oxadiazole-2-yl)pyridine-2-yl)methyl)-4,4-dimethyl-7-(1-(methylsulfonyl)piperidine-4-yl)isoquinoline-1,3(2H,4H)-dione]
17 | > 10000 | 310 | CC(C)(C)OC(=O)N1CCC(Cn2c(=O)n(Cc3ccc(-c4nnc(C(F)F)o4)cn3)c(=O)c3cc(F)ccc32)CC1 [Compound 72, Tert-butyl 4-((3-((5-(5-(difluoromethyl)-1,3,4-oxadiazole-2-yl)pyridine-2-yl)methyl)-6-fluoro-2,4-dioxo-3,4-dihydroquinazoline-1(2H)-yl)methyl)piperidine-1-carboxylate]
18 | > 10000 | 61 | CC1(C)C(=O)N(Cc2ccc(-c3nnc(C(F)F)o3)cn2)C(=O)c2ccc(C3CCN(CC4CCOCC4)CC3)cc21 [Compound 62, 2-((5-(5-(difluoromethyl)-1,3,4-oxadiazole-2-yl)pyridine-2-yl)methyl)-4,4-dimethyl-6-(1-((tetrahydro-2H-pyran-4-yl)methyl)piperidine-4-yl)isoquinoline-1,3(2H,4H)-dione]
19 | > 10000 | 19 | CN1CCC(c2ccc3c(c2)C(C)(C)C(=O)N(Cc2ccc(-c4nnc(C(F)F)o4)cn2)C3=O)CC1 [Compound 44, 2-((5-(5-(difluoromethyl)-1,3,4-oxadiazole-2-yl)pyridine-2-yl)methyl)-4,4-dimethyl-6-(1-methylpiperidine-4-yl)isoquinoline-1,3(2H,4H)-dione]
20 | > 10000 | 52 | CC1(C)C(=O)N(Cc2ccc(-c3nnc(C(F)F)o3)cn2)C(=O)c2ccc(N3CCN(c4ncccn4)CC3)cc21 [Compound 50, 2-((5-(5-(difluoromethyl)-1,3,4-oxadiazole-2-yl)pyridine-2-yl)methyl)-4,4-dimethyl-6-(4-(pyrimidine-2-yl)piperazine-1-yl)isoquinoline-1,3(2H,4H)-dione]
21 | > 10000 | 69 | CCCCN1CCN(c2ccc3c(c2)C(C)(C)C(=O)N(Cc2ccc(-c4nnc(C(F)F)o4)cn2)C3=O)CC1 [Compound 147, 6-(4-butylpiperazine-1-yl)-2-((5-(5-(difluoromethyl)-1,3,4-oxadiazole-2-yl)pyridine-2-yl)methyl)-4,4-dimethylisoquinoline-1,3(2H,4H)-dione]
22 | > 10000 | 132 | Cn1c(=O)n(Cc2ccc(-c3nnc(C(F)F)o3)cn2)c(=O)c2ccccc21 [Compound 18, 3-((5-(5-(difluoromethyl)-1,3,4-oxadiazole-2-yl)pyridine-2-yl)methyl)-1-methylquinazoline-2,4(1H,3H)-dione]
23 | > 10000 | 17 | CN1CCN(c2ccc3c(c2)C(C)(C)C(=O)N(Cc2ccc(-c4nnc(C(F)F)o4)cn2)C3=O)CC12CC2 [Compound 80, 2-((5-(5-(difluoromethyl)-1,3,4-oxadiazole-2-yl)pyridine-2-yl)methyl)-4,4-dimethyl-6-(4-methyl-4,7-diazaspiro[2.5]octane-7-yl)isoquinoline-1,3(2H,4H)-dione]
24 | > 10000 | 20 | CC1(C)C(=O)N(Cc2ccc(-c3nnc(C(F)F)o3)cn2)C(=O)c2cc(C3CCN(C4COC4)CC3)ccc21 [Compound 55, 2-((5-(5-(difluoromethyl)-1,3,4-oxadiazole-2-yl)pyridine-2-yl)methyl)-4,4-dimethyl-7-(1-(oxetan-3-yl)piperidine-4-yl)isoquinoline-1,3(2H,4H)-dione]
25 | > 10000 | 33 | Cn1c(=O)n(Cc2ccc(-c3nnc(C(F)F)o3)cn2)c(=O)c2cc(-c3cccnc3)ccc21 [Compound 91, 3-((5-(5-(difluoromethyl)-1,3,4-oxadiazole-2-yl)pyridine-2-yl)methyl)-1-methyl-6-(pyridine-3-yl)quinazoline-2,4(1H,3H)-dione]
26 | > 10000 | 21 | CC1(C)C(=O)N(Cc2ccc(-c3nnc(C(F)F)o3)cn2)C(=O)c2ccc(N3CCOCC3)cc21 [Compound 24, 2-((5-(5-(difluoromethyl)-1,3,4-oxadiazole-2-yl)pyridine-2-yl)methyl)-4,4-dimethyl-6-morpholinoisoquinoline-1,3(2H,4H)-dione]

Reference: patent publication US12440484B2, “1,3,4-oxadiazole homophthalimide derivative compounds as histone deacetylase 6 inhibitor, and the pharmaceutical composition comprising the same” (Chong Kun Dang Pharmaceutical Corp., priority 2019, dated 2025)
